Data from US20230121086A1, “RORgT INHIBITOR, PREPARATION METHOD THEREOF AND USE THEREOF” (SUNSHINE LAKE PHARMA CO., LTD., priority 2020, published 2023).

target: T1, RORγt (Homo sapiens, UniProt P51449); assay: Fluorescence resonance energy transfer (FRET) test, inhibitory activity of RORγt; type: biochemical; settings: FRET, B-RORγt LBD / Biotin-SRC1; read-out: IC50
T1 construct: […]
T1 sequence (P51449 269-508 limits assumed): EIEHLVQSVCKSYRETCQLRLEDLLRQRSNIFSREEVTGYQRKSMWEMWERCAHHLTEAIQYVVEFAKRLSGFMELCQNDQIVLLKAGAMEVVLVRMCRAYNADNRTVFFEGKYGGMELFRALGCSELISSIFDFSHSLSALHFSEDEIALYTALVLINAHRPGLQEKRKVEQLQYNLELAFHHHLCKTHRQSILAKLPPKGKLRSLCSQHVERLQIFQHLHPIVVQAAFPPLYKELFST

| Structure (SMILES) | IC50 |
| --- | --- |
| CCS(=O)(=O)c1ccc([C@H](CC(=O)NCC(=O)OC)NC(=O)c2ccc(N3C[C@@H](Oc4ccc(C(F)(F)F)cc4)C[C@H]3COC(F)F)cc2)cc1 [Example 99, methyl 2-((S)-3-(4-((2S,4S)-2-((difluoromethoxy)methyl)-4-(4-(trifluoromethyl)phenoxy)pyrrolidin-1-yl)benzoylamino)-3-(4-(ethylsulfonyl)phenyl)propionamido)acetate] | 25 nM |
| CCS(=O)(=O)c1ccc([C@H](CC(=O)NCC(=O)O)NC(=O)c2ccc(N3C[C@@H](Oc4ccc(C(F)(F)F)cc4)C[C@H]3COC(F)F)cc2)cc1 [Example 100, 2-((S)-3-(4-((2S,4S)-2-((difluoromethoxy)methyl)-4-(4-(trifluoromethyl)phenoxy)pyrrolidin-1-)benzoylamino)-3-(4-(ethylsulfonyl)phenyl)propionamido)acetic Acid] | 14 nM |
| CCS(=O)(=O)c1ccc([C@@H](NC(=O)c2ccc(N3C[C@@H](Oc4ccc(C(F)(F)F)cc4)C[C@H]3COC(F)F)cc2)C(=O)O)cc1 [Example 102, (R)-2-(4-((2S,4S)-2-((difluoromethoxy)methyl)-4-(4-(trifluoromethyl)phenoxy)pyrrolidin-1-yl)benzoylamino)-2-(4-(ethylsulfonyl)phenyl)acetic Acid] | 4 nM |
| CCS(=O)(=O)c1ccc([C@H](CN(C)C)NC(=O)c2ccc(N3C[C@@H](Oc4ccc(C(F)(F)F)cc4)C[C@H]3COC(F)F)cc2)cc1 [Example 103] | 60 nM |
| CCS(=O)(=O)c1ccc([C@H](COCCOC)NC(=O)c2ccc(N3C[C@@H](Oc4ccc(C(F)(F)F)cc4)C[C@H]3COC(F)F)cc2)cc1 [Example 104] | 12 nM |
| CCS(=O)(=O)c1ccc([C@H](CCC(=O)O)NC(=O)c2ccc(N3C[C@@H](Oc4ccc(C(F)(F)F)cc4)C[C@H]3COC(F)F)cc2)cc1 [Example 105, (S)-4-(4-((2S,4S)-2-((difluoromethoxy)methyl)-4-(4-(trifluoromethyl)phenoxy)pyrrolidin-1-yl)benzoylamino)-4-(4-(ethylsulfonyl)phenyl)butyric Acid] | 7 nM |
| CCS(=O)(=O)c1ccc([C@H](CCCC(=O)O)NC(=O)c2ccc(N3C[C@@H](Oc4ccc(C(F)(F)F)cc4)C[C@H]3COC(F)F)cc2)cc1 [Example 106, (S)-5-(4-((2S,4S)-2-((difluoromethoxy)methyl)-4-(4-(trifluoromethyl)phenoxy)pyrrolidin-1-yl)benzoylamino)-5-(4-(ethylsulfonyl)phenyl)valeric Acid] | 52 nM |

Other lines, results leading:

| IC50 | Structure (SMILES) |
| --- | --- |
| 24 nM | CCOC[C@H]1CC[C@@H](c2ccc(C(F)(F)F)cc2)CN1c1ccc(C(=O)N[C@H](CC#N)c2ccc(S(=O)(=O)CC)cc2)cc1 [Example 108-2, N—((R)-2-cyano-1-(4-(ethylsulfonyl)phenyl)ethyl)-4-((2R,5S)-2-(ethoxymethyl)-5-(4-(trifluoromethyl)phenyl)piperidin-1-yl)benzamide] |
| 7 nM | CCS(=O)(=O)c1ccc([C@@H](CC#N)NC(=O)c2ccc(N3C[C@@H](c4ccc(C(F)(F)F)cc4)CC[C@H]3COCC3CC3)cc2)cc1 [Example 109-1, N—((R)-2-cyano-1-(4-(ethylsulfonyl)phenyl)ethyl)-4-((2S,5R)-2-((cyclopropylmethoxy)methyl)-5-(4-(trifluoromethyl)phenyl)piperidin-1-yl)benzamide] |
| 19 nM | CCC(F)(F)OC[C@@H]1CC[C@H](c2ccc(C(F)(F)F)cc2)CN1c1ccc(C(=O)N[C@H](CC#N)c2ccc(S(=O)(=O)CC)cc2)cc1 [Example 110-1, N—((R)-2-cyano-1-(4-(ethylsulfonyl)phenyl)ethyl)-4-((2S,5R)-2-((1,1-difluoropropoxy)methyl)-5-(4-(trifluoromethyl)phenyl)piperidin-1-yl)benzamide] |
| 7 nM | CCC(F)(F)OC[C@H]1CC[C@@H](c2ccc(C(F)(F)F)cc2)CN1c1ccc(C(=O)N[C@H](CC#N)c2ccc(S(=O)(=O)CC)cc2)cc1 [Example 110-2, N—((R)-2-cyano-1-(4-(ethylsulfonyl)phenyl)ethyl)-4-((2R,5S)-2-((1,1-difluoropropoxy)methyl)-5-(4-(trifluoromethyl)phenyl)piperidin-1-yl)benzamide] |
